This passage reports AC50, CC50 and EC50 results from ChEMBL document CHEMBL1201862, “PubChem BioAssay data set” (2004).

The subject of assay [1] is INS1. The assay is described as follows: INS-1E survival protection against cytokine death – cell-based, luminescence, retest, dose response (AID 449756).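 Also: cell death triggered by IL-1 beta plus TNF-alpha plus IFN-gamma mixture; protective hits raise ATP signal compared with cytokine alone wells.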 The settings on record: Rattus norvegicus. The format is functional.
Assay [2] is described as follows: microbe, parasite or virus in culture. The format is functional. The settings on record: Mycobacterium tuberculosis.
Assay [3] in a line: NIH3T3 cell viability loss – ATP luminescence, mouse fibroblasts, counter-screen, dose response (AID 2010).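 Also: cells exposed to compound for about 90 hours before reading.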 The assay is classed as functional, cell-based. (Counterscreens check selectivity or assay interference.)
Assay [4] is described as follows: Trypanosoma cruzi growth suppression in host cells – NIH3T3 host cells, beta-gal luminescence, confirmation (AID 2044).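 Also: intracellular parasites grown in NIH/3T3 mouse fibroblasts as host cells; luminescent beta-galactosidase reporter signal from transgenic T. cruzi replicating inside host cells; inhibitors lower the luminescence signal.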 The assay is classed as functional, cell-based.
Assay [5] deals with T1, Heat shock factor protein 1 (Mus musculus, UniProt P38532).
T1 sequence (P38532 whole entry): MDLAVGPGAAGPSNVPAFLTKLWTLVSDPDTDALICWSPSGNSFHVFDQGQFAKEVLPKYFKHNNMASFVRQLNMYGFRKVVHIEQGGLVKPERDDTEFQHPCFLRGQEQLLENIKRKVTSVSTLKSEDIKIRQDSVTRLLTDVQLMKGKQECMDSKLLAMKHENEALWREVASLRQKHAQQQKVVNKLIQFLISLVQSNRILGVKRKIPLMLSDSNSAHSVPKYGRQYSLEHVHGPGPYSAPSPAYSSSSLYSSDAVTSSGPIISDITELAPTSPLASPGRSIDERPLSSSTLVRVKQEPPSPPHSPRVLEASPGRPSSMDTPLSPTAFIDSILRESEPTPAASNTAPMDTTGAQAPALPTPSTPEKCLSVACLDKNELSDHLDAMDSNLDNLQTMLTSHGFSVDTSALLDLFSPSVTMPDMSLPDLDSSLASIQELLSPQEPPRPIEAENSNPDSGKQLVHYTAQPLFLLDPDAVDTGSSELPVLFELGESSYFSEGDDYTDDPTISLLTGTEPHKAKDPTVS
Put plainly: enhancement of HSF1-driven luciferase signal – cell-based, NIH3T3, luminescence, dose retest, confirmation (AID 435004).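 Also: stress induced by proteasome inhibitor MG132 added 30 min after compound; luciferase reporter driven by HSF1 response element in NIH3T3 cells; actives raise luminescence as potentiators of the MG132 stress response.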 The format is functional.

Assay [6] has as its target T2, Replicative DNA helicase DnaB (Mycobacterium tuberculosis, UniProt P9WMR3).
T2 sequence (P9WMR3 whole entry): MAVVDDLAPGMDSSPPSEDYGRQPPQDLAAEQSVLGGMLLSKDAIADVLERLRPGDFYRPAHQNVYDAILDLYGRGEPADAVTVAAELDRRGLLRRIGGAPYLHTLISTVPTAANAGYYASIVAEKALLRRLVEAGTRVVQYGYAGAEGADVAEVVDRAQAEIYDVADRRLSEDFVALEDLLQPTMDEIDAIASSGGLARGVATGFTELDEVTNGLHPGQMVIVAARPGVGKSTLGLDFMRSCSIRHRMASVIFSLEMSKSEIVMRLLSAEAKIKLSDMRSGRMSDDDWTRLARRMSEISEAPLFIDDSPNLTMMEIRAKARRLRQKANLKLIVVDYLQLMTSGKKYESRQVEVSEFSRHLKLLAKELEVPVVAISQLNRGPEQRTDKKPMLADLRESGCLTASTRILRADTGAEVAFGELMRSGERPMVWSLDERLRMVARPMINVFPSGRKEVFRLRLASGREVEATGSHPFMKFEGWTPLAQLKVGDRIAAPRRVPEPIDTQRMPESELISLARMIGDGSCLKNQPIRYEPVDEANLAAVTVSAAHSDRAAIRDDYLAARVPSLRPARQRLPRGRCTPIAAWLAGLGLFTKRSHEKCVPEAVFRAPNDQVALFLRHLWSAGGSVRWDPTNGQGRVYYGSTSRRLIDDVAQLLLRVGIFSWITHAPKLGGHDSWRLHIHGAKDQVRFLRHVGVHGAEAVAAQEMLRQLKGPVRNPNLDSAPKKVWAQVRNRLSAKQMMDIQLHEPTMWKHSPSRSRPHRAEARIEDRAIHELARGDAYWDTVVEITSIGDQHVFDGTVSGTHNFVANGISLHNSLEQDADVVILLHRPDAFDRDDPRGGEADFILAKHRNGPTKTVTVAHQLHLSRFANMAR
Put plainly: DnaB intein splicing inhibitors, dose response, biochemical, cell-free fluorescence (AID 449749). The assay is classed as functional.

Assay [7] deals with T3, Protein RecA (Mycobacterium tuberculosis, UniProt P9WHJ3).
T3 sequence (P9WHJ3 whole entry): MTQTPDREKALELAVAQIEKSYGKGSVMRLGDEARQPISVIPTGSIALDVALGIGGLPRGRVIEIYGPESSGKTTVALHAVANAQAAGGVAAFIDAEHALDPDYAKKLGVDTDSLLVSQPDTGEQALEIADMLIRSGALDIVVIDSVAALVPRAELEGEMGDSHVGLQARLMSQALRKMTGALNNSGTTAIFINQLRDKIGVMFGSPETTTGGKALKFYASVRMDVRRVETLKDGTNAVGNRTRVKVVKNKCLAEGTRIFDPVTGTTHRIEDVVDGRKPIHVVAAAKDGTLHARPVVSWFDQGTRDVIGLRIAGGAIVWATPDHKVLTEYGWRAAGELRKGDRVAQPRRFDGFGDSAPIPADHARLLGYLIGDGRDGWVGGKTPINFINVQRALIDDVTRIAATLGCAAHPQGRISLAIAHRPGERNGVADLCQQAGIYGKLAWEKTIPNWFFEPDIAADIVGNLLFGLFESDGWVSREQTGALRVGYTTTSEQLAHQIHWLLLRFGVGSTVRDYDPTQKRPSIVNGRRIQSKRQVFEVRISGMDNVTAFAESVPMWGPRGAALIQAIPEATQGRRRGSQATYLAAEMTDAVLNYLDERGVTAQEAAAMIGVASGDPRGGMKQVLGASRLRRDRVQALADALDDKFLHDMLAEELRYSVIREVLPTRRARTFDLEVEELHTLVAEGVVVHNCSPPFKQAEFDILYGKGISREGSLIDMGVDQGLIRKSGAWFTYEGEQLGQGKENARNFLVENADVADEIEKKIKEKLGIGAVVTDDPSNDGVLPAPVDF
The assay is described as follows: Fluorescence Cell-Free Homogeneous Dose Retest to Identify Inhibitors of RecA-Intein Splicing Activity. [Related pubchem assays (depositor defined):AID2097, AID2223, AID489010, AID492950]. The format is functional.

Assay [8] addresses Cytochrome P450 3A4 (Homo sapiens, UniProt P08684).
In assay [9] the target is Cytochrome P450 2D6 (Homo sapiens, UniProt P10635).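 Also: CYP2D6 member of a cytochrome P450 panel assay.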
Chain of Cytochrome P450 2D6 (P10635 whole entry): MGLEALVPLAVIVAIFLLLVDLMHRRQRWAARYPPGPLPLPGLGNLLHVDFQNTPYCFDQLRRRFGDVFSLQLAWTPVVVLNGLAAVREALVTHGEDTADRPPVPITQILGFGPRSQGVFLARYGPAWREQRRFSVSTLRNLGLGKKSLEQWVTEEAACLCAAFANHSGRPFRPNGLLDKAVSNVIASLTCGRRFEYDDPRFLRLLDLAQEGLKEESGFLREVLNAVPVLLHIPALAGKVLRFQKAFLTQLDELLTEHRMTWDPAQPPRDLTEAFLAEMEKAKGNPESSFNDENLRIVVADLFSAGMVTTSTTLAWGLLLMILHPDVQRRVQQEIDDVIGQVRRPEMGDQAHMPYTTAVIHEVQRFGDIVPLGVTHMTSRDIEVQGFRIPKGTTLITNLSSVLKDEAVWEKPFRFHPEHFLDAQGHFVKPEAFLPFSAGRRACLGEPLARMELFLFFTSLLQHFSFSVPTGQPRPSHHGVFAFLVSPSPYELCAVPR
Assay [10] deals with T4, Cytochrome P450 1A2 (Homo sapiens, UniProt P05177).
T4 sequence (P05177 whole entry): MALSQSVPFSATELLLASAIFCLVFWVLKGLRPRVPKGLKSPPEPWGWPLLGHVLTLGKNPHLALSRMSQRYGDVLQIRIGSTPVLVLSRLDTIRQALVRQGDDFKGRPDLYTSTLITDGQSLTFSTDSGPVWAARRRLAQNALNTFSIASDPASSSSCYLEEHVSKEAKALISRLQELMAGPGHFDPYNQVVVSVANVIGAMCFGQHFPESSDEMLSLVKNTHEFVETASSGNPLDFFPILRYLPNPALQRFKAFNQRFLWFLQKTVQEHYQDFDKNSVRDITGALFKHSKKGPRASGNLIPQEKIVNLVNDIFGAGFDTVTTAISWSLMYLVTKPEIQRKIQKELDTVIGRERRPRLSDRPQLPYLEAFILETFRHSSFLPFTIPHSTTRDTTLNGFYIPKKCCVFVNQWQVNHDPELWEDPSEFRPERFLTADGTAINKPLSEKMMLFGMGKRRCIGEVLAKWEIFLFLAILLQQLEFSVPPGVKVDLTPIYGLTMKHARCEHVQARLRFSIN

Assay [11] deals with T5, Streptokinase A (Streptococcus pyogenes serotype M1, UniProt P10520).
T5 sequence (P10520 whole entry): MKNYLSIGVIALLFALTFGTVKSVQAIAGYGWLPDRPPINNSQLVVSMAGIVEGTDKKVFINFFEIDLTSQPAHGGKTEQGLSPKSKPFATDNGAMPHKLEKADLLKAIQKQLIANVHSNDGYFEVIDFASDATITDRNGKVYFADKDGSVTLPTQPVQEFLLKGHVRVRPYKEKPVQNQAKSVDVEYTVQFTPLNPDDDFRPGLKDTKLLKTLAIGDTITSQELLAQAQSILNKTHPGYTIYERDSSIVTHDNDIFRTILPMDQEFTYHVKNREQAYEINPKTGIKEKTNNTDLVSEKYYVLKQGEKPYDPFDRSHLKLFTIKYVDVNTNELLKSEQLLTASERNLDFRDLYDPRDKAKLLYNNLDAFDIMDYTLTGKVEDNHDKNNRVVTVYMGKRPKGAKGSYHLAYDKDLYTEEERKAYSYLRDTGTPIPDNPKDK
Put plainly: viability-normalized secreted streptokinase activity reduction – plasminogen activation absorbance, OD405, dose response (AID 1914).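 Also: secreted streptokinase activity via plasminogen activation per viability signal from cell pellet.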 The assay is classed as functional, Streptococcus pyogenes M1 GAS.

Assay [12] has as its system Streptococcus. Put plainly: GAS UMAA2166 growth inhibition – luminescence, BacTiterGlo, counter-screen for streptokinase expression inhibitor project, dose response (AID 1915).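 Also: potency for reduction of bacterial viability or growth.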 The assay is classed as functional, organism-based.
The subject of assay [13] is Streptococcus sp. 'group A'. The assay is described as follows: Streptococcus pyogenes SK(-)GAS viability under kanamycin – luminescence, BacTiterGlo, confirmation, counter-screen for streptokinase expression inhibitor project, dose response (AID 1900). The assay is classed as functional, organism-based.

Calls of active or inactive are those of the source. Rule as the data show it, for most assays here: actives have a measured EC50 and inactives only a lower limit. Bounds are passed on as bounds.

As a reminder, the AC50 is the concentration at which the activity in the assay is half-maximal. The term EC50 denotes the concentration that produces a half-maximal response.

Chain of Cytochrome P450 3A4 (P08684 whole entry): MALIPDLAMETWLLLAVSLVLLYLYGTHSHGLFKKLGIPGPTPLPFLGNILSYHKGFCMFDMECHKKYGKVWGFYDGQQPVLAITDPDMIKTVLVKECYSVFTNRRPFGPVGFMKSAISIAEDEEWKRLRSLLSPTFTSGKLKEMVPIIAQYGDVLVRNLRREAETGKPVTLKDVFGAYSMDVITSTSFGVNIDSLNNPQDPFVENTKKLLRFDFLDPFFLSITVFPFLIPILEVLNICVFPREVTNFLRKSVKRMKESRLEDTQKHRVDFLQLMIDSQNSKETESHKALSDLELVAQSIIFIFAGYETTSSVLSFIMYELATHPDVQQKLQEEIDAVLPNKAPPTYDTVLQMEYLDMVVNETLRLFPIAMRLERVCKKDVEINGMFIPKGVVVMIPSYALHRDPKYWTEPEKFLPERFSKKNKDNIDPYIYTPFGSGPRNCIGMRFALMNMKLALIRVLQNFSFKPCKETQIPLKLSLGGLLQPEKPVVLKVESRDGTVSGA

`COc1ccc(-n2c(=S)[nH]c3cc(C(=O)Nc4ccccc4OC)ccc3c2=O)cc1`: the AC50 in assay [1] was 6.62 µM (active).

For the compound `CCn1c2ccccc2c2cc(CN3CCN(Cc4cc(OC)ccc4O)CC3)ccc21`, in [2], the CC50 was > 40 µM (active). The EC50 in assay [3] was > 60 µM (not active); in [4] it was 1.21 µM (active).

As to `COCC/N=C1/Sc2nc3ccc(C)cc3cc2CN1Cc1ccco1`, in [2], the CC50 is > 40 µM (active).

Consider `CCOC(=O)c1nnc(-c2ccccc2)nc1Sc1ccccc1Cl`, for which the results for the EC50 in assay [5] and in [7] were 8.48 µM (active) and 0.686 µM (active), respectively. In assay [2], the CC50 was > 40 µM (active). Besides, in [6], the AC50 was 2.36 µM (active).

As to `O=C1N=C(Nc2ccccc2)S/C1=C\C=C\c1ccco1`, in [2], the CC50 is 39.3 µM (active).

As to `C/C(=N/Nc1nc(-c2ccccc2)cc(-c2ccc(F)cc2)n1)c1cccc(N)c1`, the AC50 in assay [1] was 3.64 µM (active).

`CCCCCCCCSc1nnc(CSc2nc3nc(C)cc(C)n3n2)o1`: the AC50 in assay [8] is 35.5 µM (inconclusive); in assay [9], 28.2 µM (inconclusive); in assay [1] it was 14.9 µM (active); in assay [10] it was 31.6 µM (inconclusive).

As to `COc1cccc(CN2CCN(Cc3ccc(C#CC(C)(C)O)s3)CC2CCO)c1` (centres undefined), in assay [6], the AC50 was > 380 µM (inactive). For the same compound, the EC50 in assay [7] is > 380 µM (inactive).

On to `C/C(CC(=O)Nc1ccccn1)=N\NC(=O)c1ccncc1`, for which the AC50 in assay [6] is 2.86 µM (active). Moreover, the EC50 in [7] was 1.94 µM (active).

Consider `O=C(NNC(=S)NC(=O)c1ccco1)c1ccc(NC(=O)c2ccccc2)cc1`, for which the EC50 in assay [11] is > 150 µM (not active); in assay [12], 9.14 µM (active); in assay [13], 0.973 µM (active).

With `CC1=NC2(O)c3ccccc3C(=O)C2(O)/C1=C(/O)OC(C)C` (centres undefined), in assay [6], the half-maximal activity concentration (AC50) is 21.2 µM (active). Moreover, in [7], the EC50 was 14.7 µM (active).

On to `CCCn1c(=O)[nH]c(=O)c2c1nc(-c1ccc(OC(F)F)c(OC)c1)n2CCOC`, for which, in assay [6], the AC50 is > 380 µM (inactive). In addition, the EC50 in assay [7] was > 380 µM (inactive).

As for `COCCn1nnnc1C(c1cc2cc(OC)ccc2nc1O)N1CCC(Cc2ccccc2)CC1` (centres undefined), the CC50 in assay [2] was > 40 µM (active).

For `COc1ccccc1NC(=O)Nc1nc(CC(=O)Nc2cc(F)ccc2F)cs1`, the results for the EC50 in assay [11], in [12] and in [13] were > 150 µM (not active), 30.9 µM (active) and 11.5 µM (active), respectively.

In the case of `CC1(C)S[C@@H]2[C@H](NC(=O)COc3ccccc3)C(=O)N2C1C(=O)OCc1cc2ccccc2n1S(=O)(=O)c1ccccc1` (some centres undefined), the EC50 is 23.6 µM (active) in [11], 39.9 µM (active) in assay [12] and 6.32 µM (active) in assay [13].

Turning to `Cc1ccc(C2C(C#N)=C(N)Oc3[nH]nc(-c4ccccc4)c32)o1` (centres undefined), in assay [6], the AC50 is 4.75 µM (active). In addition, in [7], the EC50 was 19.3 µM (active).

Regarding `O=[N+]([O-])c1cc(Cl)c(O)c(-[n+]2c(-c3ccccc3)cc(-c3ccccc3)cc2-c2ccccc2)c1.[O-][Cl+3]([O-])([O-])[O-]`, the CC50 in [2] is > 40 µM (active).

Turning to `CCCCCCCCCCCCC(NC(C)=O)(C(=O)OCC)C(=O)OCC`, the EC50 is > 150 µM (not active) in assay [11], 8.56 µM (active) in [12] and 6.45 µM (active) in assay [13].

Regarding `CC12CCC(C(=O)Nc3cccc(Cl)c3Cl)([C@H](Br)C1=O)C2(C)C` (some centres undefined), the EC50 in [11], in assay [12] and in assay [13] was > 150 µM (not active) in each case.

Consider `O=C(C/C=N\OCc1c(Cl)cccc1Cl)Oc1ccc(Cl)cc1Cl`, for which the AC50 in [6] was 21.8 µM (active). In addition, the EC50 in assay [7] was 7.56 µM (active).

For `COc1ccc(OC)c(-c2[nH]nc3c2C(c2ccco2)C(C#N)=C(N)O3)c1` (centres undefined), the concentration at half-maximal activity (AC50) in [6] is 185 µM (active). Moreover, in assay [7], the concentration giving a half-maximal response (EC50) is 3.22 µM (active).

Turning to `Cc1oc(C(C)(C)C)cc1C(=O)N1CCN(C(c2ccccc2)c2ccccc2)CC1`, the EC50 was 17.6 µM (active) in assay [11], 16.4 µM (active) in assay [12] and 2.64 µM (active) in assay [13].
